This is an account of results in patent US11059766B2, “Ethynyl derivatives” (Hoffmann-La Roche Inc., priority 2015, dated 2021).

SMILES strings stand for the structures.

For assay [1], the target named is T1, human mGlu5a receptor (Homo sapiens (Human), UniProt P41594). Put plainly: Intracellular Ca2+ mobilization assay (mGlu5 PAM assay). The assay is classed as cell-based. The following applies: for Activity profile: PAM or NAM; for Efficacy: maximal response in % of maximal stimulatory effect of saturating L-glutamate; for mGlu5 PAM EC50: HEK-293 cells, glutamate at EC20; for EC50 (nM) mGlu5 PAM assay: comparison table. On the procedure: A monoclonal HEK-293 cell line stably transfected with a cDNA encoding for the human mGlu5a receptor was generated; for the work with mGlu5 Positive Allosteric Modulators (PAMs), a cell line with low receptor expression levels and low constitutive receptor activity was selected to allow the differentiation of agonistic versus PAM activity. Cells were cultured according to standard protocols (Freshney, 2000) in Dulbecco's Modified Eagle Medium with high glucose supplemented with 1 mM glutamine, 10% (vol/vol) heat-inactivated bovine calf serum, Penicillin/Streptomycin, 50 μg/ml hygromycin and 15 μg/ml blasticidin (all cell culture reagents and antibiotics from Invitrogen, Basel, Switzerland).
About 24 hrs before an experiment, 5×10^4 cells/well were seeded in poly-D-lysine coated, black/clear-bottomed 96-well plates. The cells were loaded with 2.5 μM Fluo-4AM in loading buffer (1×HBSS, 20 mM HEPES) for 1 hr at 37° C. and washed five times with loading buffer. The cells were transferred into a Functional Drug Screening System 7000 (Hamamatsu, Paris, France), and 11 half logarithmic serial dilutions of test compound at 37° C. were added and the cells were incubated for 10-30 min with on-line recording of fluorescence. Following this pre-incubation step, the agonist L-glutamate was added to the cells at a concentration corresponding to EC20 (typically around 80 μM) with on-line recording of fluorescence; in order to account for day-to-day variations in the responsiveness of cells, the EC20 of glutamate was determined immediately ahead of each experiment by recording of a full dose-response curve of glutamate.
Responses were measured as peak increase in fluorescence minus basal (i.e. fluorescence without addition of L-glutamate), normalized to the maximal stimulatory effect obtained with saturating concentrations of L-glutamate. Graphs were plotted with the % maximal stimulatory using XLfit, a curve fitting program that iteratively plots the data using Levenburg Marquardt algorithm. The single site competition analysis equation used was y=A+((B−A)/(1+((x/C)D))), where y is the % maximal stimulatory effect, A is the minimum y, B is the maximum y, C is the EC50, x is the log 10 of the concentration of the competing compound and D is the slope of the curve (the Hill Coefficient). From these curves the EC50 (concentration at which half maximal stimulation was achieved), the Hill coefficient as well as the maximal response in % of the maximal stimulatory effect obtained with saturating concentrations of L-glutamate were calculated.
A depression of the signal observed after addition of the EC20 concentration of L-glutamate was indicative of an inhibitory activity of the test compound.

Assay [2] concerns the target T1, human mGlu5a receptor. Put plainly: MPEP binding assay ([3H]MPEP displacement). As to conditions: for Ki: comparison table; for EC50: [3H]MPEP 2 nM, EBNA cell membranes, read-out: mGlu5-MPEP binding EC50. Here is the method:
For binding experiments, cDNA encoding human mGlu5a receptor was transiently transfected into EBNA cells using a procedure described by Schlaeger and Christensen [Cytotechnology 15:1-13 (1998)]. Cell membrane homogenates were stored at −80° C. until the day of assay where upon they were thawed and resuspended and polytronised in 15 mM Tris-HCl, 120 mM NaCl, 100 mM KCl, 25 mM CaCl2, 25 mM MgCl2 binding buffer at pH 7.4 to a final assay concentration of 20 μg protein/well.
Saturation isotherms were determined by addition of twelve [^3H]MPEP concentrations (0.04-100 nM) to these membranes (in a total volume of 200 μl) for 1 h at 4° C. Competition experiments were performed with a fixed concentration of [^3H]MPEP (2 nM) and IC50 values of test compounds evaluated using 11 concentrations (0.3-10,000 nM). Incubations were performed for 1 h at 4° C.
At the end of the incubation, membranes were filtered onto unifilter (96-well white microplate with bonded GF/C filter preincubated 1 h in 0.1% PEI in wash buffer, Packard BioScience, Meriden, Conn.) with a Filtermate 96 harvester (Packard BioScience) and washed 3 times with cold 50 mM Tris-HCl, pH 7.4 buffer. Nonspecific binding was measured in the presence of 10 μM MPEP. The radioactivity on the filter was counted (3 min) on a Packard Top-count microplate scintillation counter with quenching correction after addition of 45 μl of microscint 40 (Canberra Packard S. A., Zürich, Switzerland) and shaking for 20 min.

The nature of assay [3]: rat Vogel conflict drinking test. The class given is in vivo.

T1 sequence (P41594 other isoform, or with tags, fused parts or gaps): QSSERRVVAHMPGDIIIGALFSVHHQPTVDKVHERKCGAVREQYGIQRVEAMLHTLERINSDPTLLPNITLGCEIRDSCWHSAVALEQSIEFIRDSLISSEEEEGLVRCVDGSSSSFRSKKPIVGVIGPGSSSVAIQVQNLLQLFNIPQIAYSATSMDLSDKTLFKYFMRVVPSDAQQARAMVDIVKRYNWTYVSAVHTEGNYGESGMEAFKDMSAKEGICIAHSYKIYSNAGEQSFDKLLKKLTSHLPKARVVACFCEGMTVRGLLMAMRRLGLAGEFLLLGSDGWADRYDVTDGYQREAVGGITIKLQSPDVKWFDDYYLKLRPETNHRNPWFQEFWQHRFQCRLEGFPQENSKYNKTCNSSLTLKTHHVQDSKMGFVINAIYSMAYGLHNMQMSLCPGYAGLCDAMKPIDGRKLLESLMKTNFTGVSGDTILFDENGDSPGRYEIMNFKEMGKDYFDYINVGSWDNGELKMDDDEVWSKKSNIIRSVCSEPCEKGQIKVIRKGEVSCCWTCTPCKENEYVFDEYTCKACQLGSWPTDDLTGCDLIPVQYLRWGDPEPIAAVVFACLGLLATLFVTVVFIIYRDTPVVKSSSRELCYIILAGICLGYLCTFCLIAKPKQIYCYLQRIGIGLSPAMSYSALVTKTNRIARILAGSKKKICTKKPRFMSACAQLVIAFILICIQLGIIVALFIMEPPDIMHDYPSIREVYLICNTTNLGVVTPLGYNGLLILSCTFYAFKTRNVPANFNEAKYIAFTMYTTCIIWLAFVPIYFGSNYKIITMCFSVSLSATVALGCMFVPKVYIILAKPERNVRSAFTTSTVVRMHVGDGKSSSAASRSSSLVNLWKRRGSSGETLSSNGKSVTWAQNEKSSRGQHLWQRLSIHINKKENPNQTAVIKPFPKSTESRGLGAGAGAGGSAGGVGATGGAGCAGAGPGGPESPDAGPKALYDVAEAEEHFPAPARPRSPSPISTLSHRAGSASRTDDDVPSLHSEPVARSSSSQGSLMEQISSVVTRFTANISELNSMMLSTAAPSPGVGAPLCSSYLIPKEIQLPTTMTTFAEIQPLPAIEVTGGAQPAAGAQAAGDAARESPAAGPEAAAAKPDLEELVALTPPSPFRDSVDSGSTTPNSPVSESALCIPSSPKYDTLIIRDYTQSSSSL

In general, Ki refers to a dissociation constant, usually derived from enzyme kinetics or from competition with a known ligand. Take `CN1C(=O)N(c2ccc(C#Cc3ccccc3)cn2)[C@@H]2CCC[C@@H]21` [Ref. 1; Ex. 106, reference compound]: at human mGlu5a receptor [1], the Activity profile result is “PAM” and the Efficacy is 42%. Besides, at human mGlu5a receptor [2], the Ki turned out to be 8 nM.

Broadly, the EC50 is the concentration at which the effect is half-maximal. Consider `CN1C(=O)N(c2ccc(C#Cc3cccc(F)c3)cn2)[C@@H]2CCC[C@@H]21` [Ref. 1; Ex. 109, reference compound], for which, on human mGlu5a receptor [1], the Activity profile entry is recorded as “PAM” and the Efficacy is 37%. Further, at human mGlu5a receptor [2], the EC50 was 12 nM and the Ki came out at 37 nM.

For `CN1C(=O)N(c2ccc(C#Cc3cc(F)ccc3F)cn2)[C@@H]2CC[C@@H]21` [Example 4, (−)-(1R,5S)-2-[5-(2,5-Difluoro-phenylethynyl)-pyridin-2-yl]-4-methyl-2,4-diazabicyclo[3.2.0]heptan-3-one], on human mGlu5a receptor [1], the “mGlu5 PAM EC50” value was “inactive”, the Activity profile entry is “NAM” and the “EC50 (nM) mGlu5 PAM assay” value is “inactive”. Also, on human mGlu5a receptor [2], the EC50 was determined as 3 nM and the inhibition constant Ki was found to be 3 nM.

Turning to `CN1C(=O)N(c2ccc(C#Cc3ccc(F)cc3)cn2)[C@@H]2CC[C@@H]21` [Example 3, (−)-(1R,5S)-2-[5-(4-Fluoro-phenylethynyl)-pyridin-2-yl]-4-methyl-2,4-diazabicyclo[3.2.0]heptan-3-one], on human mGlu5a receptor [1], the “mGlu5 PAM EC50” value is “inactive”, the Activity profile result is reported as “NAM” and the “EC50 (nM) mGlu5 PAM assay” value is “inactive”. Further, on human mGlu5a receptor [2], the EC50 came to 4 nM and the Ki came out at 4 nM.

Regarding `CN1C(=O)N(c2ccc(C#Cc3ccccc3)cn2)[C@@H]2CC[C@@H]21` [Example 1, (−)-(1 S,5R)-2-methyl-4-(5-(phenylethynyl)pyridin-2-yl)-2,4-diazabicyclo[3.2.0]heptan-3-one], on human mGlu5a receptor [1], the “mGlu5 PAM EC50” value was “inactive”, the Activity profile result is on record as “NAM” and the “EC50 (nM) mGlu5 PAM assay” value was “inactive”. Also, on human mGlu5a receptor [2], the EC50 was 9 nM and the Ki was 9 nM. The “minimal effective dose (anxiolytic activity)” value in assay [3] worked out at 0.1 mg/kg.

Consider `CN1C(=O)N(c2ccc(C#Cc3cccc(F)c3)cn2)[C@@H]2CC[C@@H]21` [Example 2, (−)-(1R,5S)-2-[5-(3-Fluoro-phenylethynyl)-pyridin-2-yl]-4-methyl-2,4-diazabicyclo[3.2.0]heptan-3-one], for which, on human mGlu5a receptor [1], the “mGlu5 PAM EC50” value was “inactive”, the Activity profile result is “NAM” and the “EC50 (nM) mGlu5 PAM assay” value is “inactive”. Besides, at human mGlu5a receptor [2], the EC50 amounted to 5 nM and the Ki amounted to 5 nM.
